System: Alternaria solani
Assay: Activity against early blight of tomato caused by Alternaria solani (protective spray on potted tomato plants)
Assay type: in vivo
Conditions: tomato leaves, rated after 5 days, untreated control 72% infection
Procedure: The active compounds, separately or together, were prepared as a stock solution with 0.25% by weight of active compound in acetone or DMSO. 1% by weight of the emulsifier Uniperol® EL (wetting agent having emulsifying and dispersing action based on ethoxylated alkylphenols) was added to this solution, and the solution was diluted with water to the desired concentration.
Use example: Activity against early blight of tomato caused by Alternaria solani
Leaves of potted plants of the cultivar “Groβe Fleischtomate St. Pierre” were sprayed to runoff point with an aqueous suspension having the concentration of active compound stated below. The next day, the leaves were infected with an aqueous spore suspension of Alternaria solani in a 2% strength biomalt solution having a density of 0.17×10^6 spores/ml. The plants were then placed in a water-vapor-saturated chamber at 20–22° C. After 5 days, the early blight on the untreated, but infected control plants had developed to such an extent that the infection could be determined visually in %.
Evaluation is carried out by determining the infected leaf areas in percent. These percentages are converted into efficacies.
The efficacy (E) is calculated as follows using Abbot's formula: E=(1−α/β)·100 • α corresponds to the fungal infection of the treated plants in % and • β corresponds to the fungal infection of the untreated (control) plants in %
An efficacy of 0 means that the infection level of the treated plants corresponds to that of the untreated control plants; an efficacy of 100 means that the treated plants were not infected.
The expected efficacies of the active compound mixtures are determined using Colby's formula [S.R. Colby, Weeds 15, 20–22 (1967)] and compared with the observed efficacies.
Colby's Formula: E=x+y−x·y/100 • E expected efficacy, expressed in percent of the untreated control, when using the mixture of the active compounds A and B at the concentrations a and b • x efficacy, expressed in % of the untreated control, when using active compound A at a concentration of a • y efficacy, expressed in % of the untreated control, when using active compound B at a concentration of b

[1] = 8 ppm active compound in the spray liquid
[2] = 16 ppm active compound in the spray liquid
[3] = 63 ppm active compound in the spray liquid
[4] = 31 ppm active compound in the spray liquid

SMILES | Efficacy in % of the untreated control [1] [%] | Efficacy in % of the untreated control [2] [%] | Efficacy in % of the untreated control [3] [%] | Efficacy in % of the untreated control [4] [%]
Cc1cc(C2CC2)nc(Nc2ccccc2)n1 [II-2, cyprodinil] | 44 | 72 | 86 | 
Cc1cc(C)nc(Nc2ccccc2)n1 [II-1, pyrimethanil] | 0 | 0 | 0 | 0
N#Cc1sc2c(=O)c3ccccc3c(=O)c=2sc1C#N [I, dithianon] | 44 | 65 | 86 | 79

Source: patent US6979666B2, “Dithianon-based fungicidal mixtures” (BASF Aktiengesellschaft, priority 2002, dated 2005)
